Results reported in publication PMC11245370, “3-Position Biaryl Endochin-like Quinolones with Enhanced Antimalarial Performance” (ACS Infectious Diseases, 2024).

How the values were obtained:
[1] = tested on: P. falciparum ELQ-300-resistant D1 clone; assay: microbe, parasite or virus in culture; type: cell-based; details: Plasmodium falciparum, 72 h, read-out: P. falciparum IC50 values, D1
[2] = tested on: P. falciparum drug-sensitive D6 strain; assay: SYBR Green I antiplasmodial assay, D6 strain; type: cell-based; details: Plasmodium falciparum, D6, 72 h, read-out: P. falciparum IC50 values, D6
Procedure: (§1) All of this information is stored in a database with information relating to chemical structure, physical chemical properties, cross resistance patterns, mammalian cell cytotoxicity, enzyme inhibitor profiles, and synthesis details. Pharmacological data and in vivo efficacy data are also stored in the database for molecules of particular interest. […] We synthesized the compound in an initial batch size of about 800 mg as described above. […] Fluorescence readings were captured with a fluorescence plate reader and processed by nonlinear regression analysis using the GraphPad Prism software to provide IC50 values for each determination. Stock solutions were freshly prepared daily in DMSO in glass vials.
(§2) Laboratory strains of P. falciparum were cultured in human erythrocytes by standard methods. The parasites were grown in culture medium with fresh human erythrocytes maintained at 2% hematocrit at 37 °C in low-oxygen conditions (5% O2, 5% CO2, 90% N2). […] Cultures were maintained at less than 10% parasitemia by transfer of infected cells to fresh erythrocytes and culture medium every 3 or 4 days.
(§3) SYBR green I assay. In vitro antiplasmodial activity was assessed using a published SYBR Green I fluorescence-based method.[20] The drugs were added to 96-well plates using twofold serial dilutions in complete medium. […] Asynchronous P. falciparum parasites were diluted with uninfected erythrocytes and added to the wells to give a final culture volume of 100 μL at 2% hematocrit and 0.2% parasitemia. […] The parasites were then lysed by adding 100 μL of SYBR green I lysis buffer containing 0.2 μL/ml SYBR green I dye (10,000×) in 20 mM Tris (pH 7.5), 5 mM EDTA, 0.008% (wt/vol) saponin, and 0.08% (v/v) Triton X-100. The plates were incubated at room temperature for an hour in the dark. […] If the IC50 value fell outside of the initially tested range, then the range was adjusted up or down, and the assay was repeated twice.

[3] = tested on: P. falciparum atovaquone-resistant clinical isolate Tm90-C2B; assay: SYBR Green I antiplasmodial assay, Tm90-C2B; type: cell-based; details: Plasmodium falciparum, TM90, 72 h, read-out: P. falciparum IC50 values, Tm90-C2B
Procedure: as §1, §2, §3

[4] = HepG2 cytotoxicity / mitochondrial toxicity (TiterGlo ATP, galactose medium); details: human
Procedure: HepG2 was routinely cultured in DMEM containing 10% fetal calf serum and 100 IU/mL penicillin and 100 μg/mL streptomycin (complete medium). For studies to investigate the potential for mitochondrial toxicity by selected 3-biaryl-ELQs, the medium contained galactose rather than glucose to force the cells to produce ATP through oxidative phosphorylation, which in turn makes them sensitive to mitochondrial toxicants.[36] […] After this period, the culture medium was removed, and the cells were shifted to galactose-containing medium with test drugs at concentrations ranging from 0 to 10 μM. Drug dilutions were prepared from DMSO stocks into galactose-containing medium. […] After incubation, the contents of each well were removed, and 25 μL of TiterGlo II reagent mix containing luciferase, detergent, and luciferin was added to each well along with 25 μL of culture medium. […] At this point, the plates were read on a luminometer (SpectraMax iD3 iD5Multi-Mode Microplate Reader), and the data were processed to yield the percent decrease in ATP production relative to no-drug control values. These values reflect the potential damage caused by mitochondrial toxicants due to reduced intracellular ATP levels caused by interference with the human mitochondrial electron transport chain. Assays were set up in triplicate.

[5] = tested on: P. falciparum multidrug-resistant Dd2 strain; assay: microbe, parasite or virus in culture; type: cell-based; details: Plasmodium falciparum, DD2, 72 h, read-out: P. falciparum IC50 values, Dd2
Procedure: as §1, §2, §3

## Cc1[nH]c2cc(F)cc(F)c2c(=O)c1-c1ccc(Oc2ccc(OC(F)(F)F)cc2)cc1 [ELQ-400, reference compound]
[1]
  IC50: 0.73 nM
[2]
  IC50: 0.19 nM
[3]
  IC50: 19.3 nM
[4]
  IC50 at 24 h: 10 µM
[5]
  IC50: 0.44 nM

## COc1cc2[nH]c(C)c(-c3ccc(-c4ccc(OC(F)F)cc4)cc3)c(=O)c2cc1Cl [ELQ-600, 6-Chloro-3-(4′-(difluoromethoxy)-[1,1′-biphenyl]-4-yl)-7-methoxy-2-methylquinolin-4(1H)-one]
[1]
  IC50: > 250 nM
[2]
  IC50: 3.9 nM
[3]
  IC50: 5.9 nM
[4]; HepG2 cells
  IC50 at 24 h: > 10 µM
[5]
  IC50: 13.4 nM

## Cc1[nH]c2cc(F)cc(F)c2c(=O)c1-c1ccc(-c2ccc(OC(F)(F)F)cc2)cc1 [ELQ-601, 5,7-Difluoro-2-methyl-3-(4′-(trifluoromethoxy)-[1,1′-biphenyl]-4-yl)quinolin-4(1H)-one]
[1]
  IC50: 9.3 nM
[2]
  IC50: 5.9 nM
[3]
  IC50: 24.5 nM
[5]
  IC50: 14.3 nM

## COc1cc2[nH]c(C)c(-c3ccc(-c4ccc(C#N)cc4)cc3)c(=O)c2cc1Cl [ELQ-602, 4′-(6-Chloro-7-methoxy-2-methyl-4-oxo-1,4-dihydroquinolin-3-yl)-[1,1′-biphenyl]-4-carbonitrile]
[1]
  IC50: > 250 nM
[2]
  IC50: 4.8 nM
[3]
  IC50: 10.9 nM
[5]
  IC50: 25.2 nM

## COc1cc2[nH]c(C)c(-c3ccc(-c4ccc(C)cc4)cc3)c(=O)c2cc1Cl [ELQ-603, 6-Chloro-7-methoxy-2-methyl-3-(4′-methyl-[1,1′-biphenyl]-4-yl)quinolin-4(1H)-one]
[1]
  IC50: > 250 nM
[2]
  IC50: 1 nM
[3]
  IC50: 1.5 nM
[5]
  IC50: 3.8 nM

## COc1ccc(-c2ccc(-c3c(C)[nH]c4cc(OC)c(Cl)cc4c3=O)cc2)cc1 [ELQ-645, 6-Chloro-7-methoxy-3-(4′-methoxy-[1,1′-biphenyl]-4-yl)-2-methylquinolin-4(1H)-one]
[1]
  IC50: > 250 nM
[2]
  IC50: 5 nM
[3]
  IC50: 6 nM
[5]
  IC50: 10.2 nM

## Cc1[nH]c2ccccc2c(=O)c1-c1ccc(-c2ccc(OC(F)(F)F)cc2)cc1 [ELQ-649, 2-Methyl-3-(4′-(trifluoromethoxy)-[1,1′-biphenyl]-4-yl)quinolin-4(1H)-one]
[1]
  IC50: 15.8 nM
[2]
  IC50: 7.9 nM
[3]
  IC50: 6 nM
[5]
  IC50: 8.3 nM

## COc1cc2[nH]c(C)c(-c3ccc(-c4ccc(C(C)(C)C)cc4)cc3)c(=O)c2cc1Cl [ELQ-651, 3-(4′-(tert-Butyl)-[1,1′-biphenyl]-4-yl)-6-chloro-7-methoxy-2-methylquinolin-4(1H)-one]
[1]
  IC50: > 250 nM
[2]
  IC50: 1.1 nM
[3]
  IC50: 0.49 nM
[5]
  IC50: 1.4 nM

## COc1cc2[nH]c(C)c(-c3ccc(-c4ccc(Oc5ccc(OC(F)(F)F)cc5)cc4)cc3)c(=O)c2cc1Cl [ELQ-653, 6-Chloro-7-methoxy-2-methyl-3-(4′-(4-(trifluoromethoxy)phenoxy)-[1,1′-biphenyl]-4-yl)quinolin-4(1H)-one]
[1]
  IC50: > 250 nM
[2]
  IC50: 1.5 nM
[3]
  IC50: 0.88 nM
[5]
  IC50: 1.4 nM

## Cc1[nH]c2c(c(=O)c1-c1ccc(-c3ccc(OC(F)(F)F)cc3)cc1)CCCC2 [ELQ-660]
[1]
  IC50: 22.2 nM
[2]
  IC50: 14.8 nM
[3]
  IC50: 7.9 nM
[5]
  IC50: 12.8 nM

## COc1cc2[nH]c(C)c(-c3ccc(-c4cccc(S(F)(F)(F)(F)F)c4)cc3)c(=O)c2cc1Cl [ELQ-662, 6-Chloro-7-methoxy-2-methyl-3-(3′-(pentafluorosulfanyl)-[1,1′-biphenyl]-4-yl)quinolin-4(1H)-one]
[1]
  IC50: > 250 nM
[2]
  IC50: 0.7 nM
[3]
  IC50: 1.4 nM
[5]
  IC50: 1.3 nM

## COc1cc2[nH]c(C)c(-c3ccc(-c4ccc(S(F)(F)(F)(F)F)cc4)cc3)c(=O)c2cc1Cl [ELQ-663, 6-Chloro-7-methoxy-2-methyl-3-(4′-(pentafluorosulfanyl)-[1,1′-biphenyl]-4-yl)quinolin-4(1H)-one]
[1]
  IC50: > 250 nM
[2]
  IC50: 1.6 nM
[3]
  IC50: 3.8 nM
[5]
  IC50: 3.2 nM

## C=C(C)[C@H]1Cc2c(ccc3c2O[C@@H]2COc4cc(OC)c(OC)cc4[C@@H]2C3=O)O1 [rotenone, reference compound]
[4]
  IC50 at 24 h: < 1 µM
